The record followed here is ChEMBL document CHEMBL1201862, “PubChem BioAssay data set” (2004).

What all share (assay): growth of human tumour cells (NCI), 48 h
The subject of experiment [1] is COLO 205.
The subject of experiment [2] is HCT-116.
Experiment [3] relates to HL-60.
Experiment [4] has as its system HOP-62.
Experiment [5] has as its system K562.
Experiment [6] deals with KM12.
In experiment [7] the test system is LXFL 529.
Experiment [8] concerns OVCAR-4.
Experiment [9] relates to RXF 393.
For experiment [10], the system named is SF-539.
Experiment [11] deals with SK-MEL-2.
In experiment [12] the test system is SK-MEL-5.
For experiment [13], the system named is SK-OV-3.
In experiment [14] the test system is SN12C.
In experiment [15] the test system is SNB-19.
Experiment [16] relates to U-251.
The subject of experiment [17] is UACC-257.
The test system of experiment [18] is DU-145.
The test system of experiment [19] is MDA-MB-231.
The subject of experiment [20] is T47D.

The structures appear in SMILES notation.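 Cells were grown in 96-well plates and exposed to each compound for 48 hours at five concentrations; endpoints were interpolated linearly between bracketing concentrations, or set to the highest concentration if not reached. GI50 marks 50% less growth.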 Activity calls are given as the source filed them. No stated cut-off is given here; in the data, active = GI50 up to about 1.1 µM and inactive = higher.

`COC(=O)[C@@]12CC(C(C)C)[C@H]3CC(C(=O)C=C1OC)[C@H]32` (some centres undefined): the GI50 was > 100 µM (inactive) in experiment [1]; > 100 µM (inactive) in experiment [2]; > 100 µM (inactive) in [3]; > 100 µM (inactive) in [4]; 85.5 µM (inactive) in experiment [5]; > 100 µM (inactive) in experiment [6]. For the same compound, the GI50 in experiment [7], in experiment [8], in experiment [9], in experiment [10], in experiment [11] and in [12] was > 100 µM (inactive) in each case. For the same compound, the GI50 in experiment [13], in experiment [14], in experiment [15], in [16] and in experiment [17] was > 100 µM (inactive) throughout.

For `CN(C)CCC(=O)N1C/C(=C\c2ccc(Cl)c(Cl)c2)C(=O)/C(=C/c2ccc(Cl)c(Cl)c2)C1`, the GI50 is 0.223 µM (active) in [1]; 0.224 µM (active) in [18]; 0.119 µM (active) in [2]; 0.0435 µM (active) in [3]; 0.303 µM (active) in experiment [4]; 0.038 µM (active) in experiment [5]. Besides, the GI50 in experiment [6] is 0.279 µM (active); in experiment [7] it was 0.211 µM (active); in [19], 0.127 µM (active); in experiment [8], 0.245 µM (active); in experiment [9] it was 0.269 µM (active); in [10] it was 0.274 µM (active). For the same compound, the GI50 in experiment [11] was 1.63 µM (inactive); in experiment [12], 0.453 µM (active); in [13], 1.86 µM (inactive); in [14], 0.207 µM (active); in [15], 0.287 µM (active); in [20] it was 0.471 µM (active). Also, the GI50 in experiment [16] was 0.149 µM (active); in [17], 1.1 µM (active).

Turning to `Cc1ccc(C(=O)N(C2CCCCC2)C2CCCCC2)cc1/N=N/N(C)C`, the GI50 was 17.7 µM (inactive) in [1]; > 10 µM (inactive) in [18]; 5.51 µM (inactive) in [2]; 6.07 µM (inactive) in [3]; 12.3 µM (inactive) in experiment [4]; 8.28 µM (inactive) in experiment [5]. The GI50 in [6] is 6.71 µM (inactive); in [7] it was 14.6 µM (inactive); in [19] it was 12.6 µM (inactive); in experiment [8] it was 10.4 µM (inactive); in experiment [10] it was 19.5 µM (inactive); in experiment [11], 2.76 µM (inactive). Besides, the GI50 in [12] is 14.3 µM (inactive); in [13] it was 17.8 µM (inactive); in experiment [14], 15.4 µM (inactive); in experiment [15], 12.6 µM (inactive); in experiment [20], 18 µM (inactive); in [16], 18.4 µM (inactive). Also, the GI50 in experiment [17] is 12.9 µM (inactive).

In the case of `NC(=O)c1cc(C2OC(CO)C(O)C2O)nn1-c1ccc([N+](=O)[O-])cc1` (centres undefined), the GI50 in [1], in experiment [2], in [3], in [4], in experiment [5] and in experiment [6] was > 100 µM (inactive) throughout. In addition, the GI50 in experiment [7], in experiment [8], in [9], in experiment [10], in experiment [11] and in experiment [12] was > 100 µM (inactive) each time. In addition, the GI50 in experiment [13], in experiment [14], in experiment [15], in experiment [16] and in experiment [17] was > 100 µM (inactive) in each case.

For the compound `CCOC(=O)C1C(c2ccccc2)=C(c2ccccc2)C(c2ccccc2)=C1c1ccccc1`, the GI50 is > 100 µM (inactive) in experiment [1]; 20.8 µM (inactive) in experiment [2]; 57.1 µM (inactive) in experiment [3]; 12.6 µM (inactive) in experiment [4]; 35 µM (inactive) in [5]; > 100 µM (inactive) in experiment [6]. The GI50 is 41.8 µM (inactive) in [7]; 18.2 µM (inactive) in experiment [8]; 15.3 µM (inactive) in experiment [9]; 29.7 µM (inactive) in experiment [10]; 26.9 µM (inactive) in experiment [11]; 46.7 µM (inactive) in experiment [12]. In addition, the GI50 in experiment [13] is 22.6 µM (inactive); in experiment [14] it was 50.7 µM (inactive); in experiment [15], 18.8 µM (inactive); in experiment [16], 21.2 µM (inactive); in experiment [17], > 94.6 µM (inactive).

Consider `O=C(N[C@H](CO)[C@H](O)c1ccc([N+](=O)[O-])cc1)C(Cl)Cl` [CHLORAMPHENICOL], for which the GI50 in experiment [1], in experiment [18], in experiment [2], in experiment [3], in experiment [4] and in experiment [5] was > 100 µM (inactive) throughout. The GI50 is > 100 µM (inactive) in experiment [6]; > 100 µM (inactive) in experiment [7]; 47.8 µM (inactive) in experiment [19]; > 95.9 µM (inactive) in experiment [8]; > 100 µM (inactive) in experiment [9]; > 100 µM (inactive) in experiment [10]. In addition, the GI50 in experiment [11], in experiment [12], in experiment [13], in experiment [14], in [15] and in experiment [16] was > 100 µM (inactive) each time. Moreover, the GI50 in [17] is > 100 µM (inactive).

In the case of `CN(C)/N=N/c1[nH]cnc1C(N)=O` [DACARBAZINE], the GI50 in experiment [1] is 78.9 µM (inactive); in experiment [18] it was 71.9 µM (inactive); in experiment [2] it was 38.5 µM (inactive); in [3], 14.9 µM (inactive); in experiment [4], 24.5 µM (inactive); in [5] it was 16 µM (inactive). Besides, the GI50 in experiment [6] is 92.7 µM (inactive); in experiment [7] it was 98.2 µM (inactive); in experiment [19] it was 51.3 µM (inactive); in experiment [8] it was 34.8 µM (inactive); in experiment [9], 82.8 µM (inactive); in experiment [10] it was 65.6 µM (inactive). The GI50 in [11] was 9.82 µM (inactive); in [12], 74.6 µM (inactive); in experiment [13], 20.6 µM (inactive); in experiment [14], 78.7 µM (inactive); in [15], > 99.1 µM (inactive); in experiment [20], > 92.3 µM (inactive). In addition, the figures for the GI50 in [16] and in experiment [17] were 92 µM (inactive) and 49.8 µM (inactive), respectively.
